As a reminder, the IC50 is the concentration at which inhibition is half-maximal. A low value points to greater potency in that assay.

Experiment [1] concerns MDA-MB-231. Description: Antiproliferative activity against human MDA-MB-231 cells after 48 hrs by MTT assay. In kind it is functional, cell-based. As to conditions: MDA-MB-231, 48 h. In general terms: Tetrazolium dyes change colour on reduction, which living cells bring about.
In experiment [2] the test system is SK-OV-3. Description: Antiproliferative activity against human SKOV3 cells after 48 hrs by MTT assay. The conditions noted are these: SK-OV-3, 48 h.
Experiment [3] concerns HeLa. As to the kind of experiment: Antiproliferative activity against human HeLa cells after 48 hrs by MTT assay. It counts as functional, cell-based.
For experiment [4], the system named is A2780. Description: cells. As to conditions: Homo sapiens, A2780, 48 h.
Description: Antiproliferative activity against human A2780 cells after 48 hrs by MTT assay
The subject of experiment [5] is HeLa. As to the kind of experiment: Inhibition of alpha-tubulin polymerization in human HeLa cells assessed as increase in ratio of supernatant faction to pellet fraction at 500 nM after 6 hrs by Western blot analysis. It counts as cell-based. Background: In western blotting, separated proteins are transferred to a membrane and probed.
The species named for experiment [6] is Homo sapiens. As to the kind of experiment: Disruption of microtubule structure in human SKOV3 cells assessed as decrease in density at 50 nM after 24 hrs by DAPI staining based immunofluorescence assay. It counts as cell-based.

The structures appear in SMILES notation. Activity calls are given as the source filed them. No cut-off for these calls is given here.

As for `COc1ccc([C@H]2[C@H](n3cc(CO)nn3)C(=O)N2c2cc(OC)c(OC)c(OC)c2)cc1O`, the concentration for half-maximal inhibition (IC50) in experiment [1] came out at 28 nM; in experiment [2], 83 nM; in experiment [3], 33 nM; in experiment [4] it was 15 nM.

`C=C1C(=O)N(c2cc(OC)c(OC)c(OC)c2)[C@H]1c1ccc(OC)c(OS(=O)(=O)c2ccc(C)cc2)c1`: the IC50 was 12800 nM in experiment [1], 12100 nM in experiment [2], 17800 nM in experiment [3] and above 20000 nM in experiment [4].

For the compound `C=C1C(=O)N(c2cc(OC)c(OC)c(OC)c2)[C@H]1c1ccc(OC)c(Cl)c1`, the IC50 in experiment [1] came out at 512 nM; in experiment [2] it was 341 nM; in experiment [3], 371 nM; in experiment [4], 316 nM.

Turning to `CC(=O)O[C@H]1C(=O)[C@@]2(C)[C@H]([C@H](OC(=O)c3ccccc3)[C@]3(O)C[C@H](OC(=O)[C@H](O)[C@@H](NC(=O)c4ccccc4)c4ccccc4)C(C)=C1C3(C)C)[C@]1(OC(C)=O)CO[C@@H]1C[C@@H]2O`, the “tubulin polymerization inhibition (active/inactive)” value in experiment [5] was “inactive”. In experiment [6], the outcome was inactive.

As for `COc1ccc([C@H]2[C@H](CO)C(=O)N2c2cc(OC)c(OC)c(OC)c2)cc1N`, the IC50 in experiment [1] amounted to 27 nM; in experiment [2], 8 nM; in experiment [3] it was 44 nM; in experiment [4], 35 nM.

Regarding `C=C1C(=O)N(c2ccccc2)[C@H]1c1ccccc1`, the 50% inhibitory concentration (IC50) in experiment [1], in experiment [2], in experiment [3] and in experiment [4] was above 20000 nM each time.

As for `C=C1C(=O)N(c2cc(OC)c(OC)c(OC)c2)[C@H]1c1ccc(OC)c(OC(C)=O)c1`, the concentration for half-maximal inhibition (IC50) in experiment [1] amounted to 133 nM; in experiment [2], 104 nM; in experiment [3], 116 nM; in experiment [4], 81 nM.

In the case of `C=C1C(=O)N(c2cc(OC)c(OC)c(OC)c2)[C@H]1c1ccc(OC)c(OCCC)c1`, the IC50 in experiment [1] is 5620 nM; in experiment [2], 5260 nM; in experiment [3], 6890 nM; in experiment [4] it was 3420 nM.

For `C=C1C(=O)N(c2cc(OC)c(OC)c(OC)c2)[C@H]1c1ccccc1`, the IC50 in experiment [1], in experiment [2], in experiment [3] and in experiment [4] was above 20000 nM throughout.

`COc1ccc([C@@H]2[C@@H](C)C(=O)N2c2cc(OC)c(OC)c(OC)c2)cc1O`: the half-maximal inhibitory concentration (IC50) in experiment [1] stood at 1080 nM; in experiment [2], 650 nM; in experiment [3], 807 nM; in experiment [4], 771 nM.

Take `COc1ccc([C@H]2[C@@H](C)C(=O)N2c2cc(OC)c(OC)c(OC)c2)cc1O`: the concentration for half-maximal inhibition (IC50) in experiment [1], in experiment [2], in experiment [3] and in experiment [4] was 31 to 63 nM throughout.

In the case of `COc1ccc([C@H]2[C@@H](C)C(=O)N2c2cc(OC)c(OC)c(OC)c2)cc1N`, the IC50 in experiment [1] worked out at 63 nM; in experiment [2], 59 nM; in experiment [3], 215 nM; in experiment [4], 81 nM.

Take `C=C1C(=O)N(c2ccc(OC)cc2)[C@H]1c1ccc(OC)c(O)c1`: the half-maximal inhibitory concentration (IC50) in experiment [1], in experiment [2], in experiment [3] and in experiment [4] was above 20000 nM in each case.

In the case of `C=C1C(=O)N(c2cc(OC)c(OC)c(OC)c2)[C@H]1c1cccc(O)c1`, the IC50 in experiment [1] amounted to 6640 nM; in experiment [2] it was 14500 nM; in experiment [3], 15000 nM; in experiment [4] it was 10500 nM.

On to `COC[C@@]1(OC)C(=O)N(c2cc(OC)c(OC)c(OC)c2)[C@H]1c1ccc(OC)c(O)c1`, for which the IC50 was above 20000 nM in experiment [1], above 20000 nM in experiment [2], above 20000 nM in experiment [3] and 17700 nM in experiment [4].

Consider `C=C1C(=O)N(c2cc(OC)c(OC)c(OC)c2)[C@H]1c1ccc(OC)c(OCC)c1`, for which the concentration for half-maximal inhibition (IC50) turned out to be 958 nM in experiment [1], 1140 nM in experiment [2], 2030 nM in experiment [3] and 854 nM in experiment [4].

Consider `C=C1C(=O)N(c2cc(OC)c(OC)c(OC)c2)[C@H]1c1ccc(OC)cc1`, for which the half-maximal inhibitory concentration (IC50) in experiment [1], in experiment [2], in experiment [3] and in experiment [4] was above 20000 nM each time.

Take `C=C1C(=O)N(c2cc(OC)c(OC)c(OC)c2)[C@H]1c1ccc(OC)c(OC(C)C)c1`: the half-inhibitory concentration (IC50) is 15900 nM in experiment [1], 18000 nM in experiment [2], above 20000 nM in experiment [3] and 11300 nM in experiment [4].

On to `C=C1C(=O)N(c2cc(OC)c(OC)c(OC)c2)[C@H]1c1ccc(OC)c(F)c1`, for which the IC50 in experiment [1] stood at 112 nM; in experiment [2] it was 136 nM; in experiment [3], 131 nM; in experiment [4], 121 nM.

As to `C=C1C(=O)N(c2cc(OC)cc(OC)c2)[C@H]1c1ccc(OC)c(O)c1`, the IC50 in experiment [1] is 125 nM; in experiment [2], 175 nM; in experiment [3], 295 nM; in experiment [4], 112 nM.

For `C=C1C(=O)N(c2cccc(OC)c2)[C@H]1c1ccc(OC)c(O)c1`, the half-inhibitory concentration (IC50) in experiment [1] was 1370 nM; in experiment [2] it was 1390 nM; in experiment [3], 2170 nM; in experiment [4], 677 nM.

As for `C=CC(=O)Nc1cc([C@H]2C(=C)C(=O)N2c2cc(OC)c(OC)c(OC)c2)ccc1OC`, the concentration for half-maximal inhibition (IC50) in experiment [1] worked out at 34 nM; in experiment [2], 63 nM; in experiment [3], 125 nM; in experiment [4], 65 nM.

For the compound `COc1ccc([C@@H]2CC(=O)N2c2cc(OC)c(OC)c(OC)c2)cc1O`, the half-maximal inhibitory concentration (IC50) in experiment [1] was found to be 28 nM; in experiment [2] it was 24 nM; in experiment [3] it was 30 nM; in experiment [4], 22 nM.

Regarding `C=C1C(=O)N(c2cc(OC)c(OC)c(OC)c2)[C@H]1c1ccc(OC)c(OCc2ccccc2)c1`, the IC50 in experiment [1], in experiment [2], in experiment [3] and in experiment [4] was above 20000 nM throughout.

In the case of `COc1ccc([C@@H]2[C@H](C)C(=O)N2c2cc(OC)c(OC)c(OC)c2)cc1O`, the half-maximal inhibitory concentration (IC50) in experiment [1] stood at 5140 nM; in experiment [2], 3270 nM; in experiment [3], 3920 nM; in experiment [4] it was 5750 nM.

Consider `COc1ccc([C@H]2[C@H](NC(C)=O)C(=O)N2c2cc(OC)c(OC)c(OC)c2)cc1O`, for which the IC50 came out at 47 nM in experiment [1], 32 nM in experiment [2], 35 nM in experiment [3] and 33 nM in experiment [4].

In the case of `C=C1C(=O)N(c2cc(OC)c(OC)c(OC)c2)[C@H]1c1ccc(OC)c(N)c1`, the IC50 amounted to 40 nM in experiment [1], 36 nM in experiment [2], 32 nM in experiment [3] and 31 nM in experiment [4].

Turning to `C=C1C(=O)N(c2cc(OC)c(OC)c(OC)c2)[C@H]1c1cc(OC)c(OC)c(OC)c1`, the IC50 turned out to be 784 nM in experiment [1], 365 nM in experiment [2], 547 nM in experiment [3] and 215 nM in experiment [4].

Consider `COc1ccc([C@H]2[C@@H](OC(=O)CCC(=O)O)C(=O)N2c2cc(OC)c(OC)c(OC)c2)cc1O`, for which the IC50 in experiment [1] was determined as 102 nM; in experiment [2], 210 nM; in experiment [3] it was 178 nM; in experiment [4] it was 79 nM.

As for `COc1ccc([C@H]2/C(=C/c3ccc(C(C)(C)C)cc3)C(=O)N2c2cc(OC)c(OC)c(OC)c2)cc1O`, the IC50 in experiment [1], in experiment [2], in experiment [3] and in experiment [4] was above 20000 nM each time.

For the compound `COc1ccc([C@H]2[C@@H](CO)C(=O)N2c2cc(OC)c(OC)c(OC)c2)cc1N`, the concentration for half-maximal inhibition (IC50) in experiment [1] was 107 nM; in experiment [2], 54 nM; in experiment [3], 328 nM; in experiment [4], 327 nM.

For the compound `COc1ccc([C@H]2[C@H](Br)C(=O)N2c2cc(OC)c(OC)c(OC)c2)cc1O`, the half-maximal inhibitory concentration (IC50) in experiment [1] is 10 nM; in experiment [2], 9 nM; in experiment [3] it was 13 nM; in experiment [4], 8 nM.

Take `C=C1C(=O)N(c2cc(OC)c(OC)c(OC)c2)[C@H]1c1ccc(C)cc1`: the IC50 amounted to 193 nM in experiment [1], 265 nM in experiment [2], 209 nM in experiment [3] and 127 nM in experiment [4].

For `COc1ccc([C@H]2[C@H](NC(=O)c3ccccc3)C(=O)N2c2cc(OC)c(OC)c(OC)c2)cc1O`, the concentration for half-maximal inhibition (IC50) in experiment [1] was 47 nM; in experiment [2] it was 45 nM; in experiment [3], 24 nM; in experiment [4], 27 nM.

Take `COc1ccc([C@H]2[C@@H](OC)C(=O)N2c2cc(OC)c(OC)c(OC)c2)cc1O`: the 50% inhibitory concentration (IC50) came out at 1960 nM in experiment [1], 2210 nM in experiment [2], 1790 nM in experiment [3] and 1220 nM in experiment [4].

Consider `COc1ccc([C@H]2[C@H](C)C(=O)N2c2cc(OC)c(OC)c(OC)c2)cc1N`, for which the IC50 in experiment [1] came to 17 nM; in experiment [2], 8 nM; in experiment [3] it was 35 nM; in experiment [4], 21 nM.

As for `COc1ccc([C@H]2/C(=C/c3ccccc3)C(=O)N2c2cc(OC)c(OC)c(OC)c2)cc1O`, the half-maximal inhibitory concentration (IC50) worked out at 3160 nM in experiment [1], 2990 nM in experiment [2], 4730 nM in experiment [3] and 2540 nM in experiment [4].

For `C=C1C(=O)N(c2cc(OC)c(OC)c(OC)c2)[C@H]1c1ccc(OC)c(O[Si](C)(C)C(C)(C)C)c1`, the concentration for half-maximal inhibition (IC50) was determined as 560 nM in experiment [1], 414 nM in experiment [2], 657 nM in experiment [3] and 287 nM in experiment [4].

`COc1ccc([C@H]2[C@H](NS(C)(=O)=O)C(=O)N2c2cc(OC)c(OC)c(OC)c2)cc1O`: the IC50 in experiment [1] amounted to 254 nM; in experiment [2], 231 nM; in experiment [3], 192 nM; in experiment [4] it was 164 nM.

In the case of `COc1ccc([C@@H]2N(c3cc(OC)c(OC)c(OC)c3)C(=O)[C@]2(O)CO)cc1O`, the 50% inhibitory concentration (IC50) in experiment [1] was 2320 nM; in experiment [2] it was 2070 nM; in experiment [3], 2100 nM; in experiment [4], 1540 nM.

As to `C=C1C(=O)N(c2cc(OC)c(OC)c(OC)c2)[C@H]1c1ccc(OC)c(OC)c1`, the half-inhibitory concentration (IC50) is 1020 nM in experiment [1], 2260 nM in experiment [2], 3160 nM in experiment [3] and 854 nM in experiment [4].

The values above are taken from ChEMBL document CHEMBL4251633, “Design, synthesis, biological evaluation and cocrystal structures with tubulin of chiral β-lactam bridged combretastatin A-4 analogues as potent antitumor agents” (Eur J Med Chem, 2018).
